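Exposure lasted 48 hours, with cells grown in 96-well plates and compounds tested at five concentrations. Abbreviation: GI50, concentration required for 50% inhibition of growth. Definition used: TGI = concentration required for complete inhibition of growth.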
Experiments:
Test in all cases: NCI-60 cell line screen, 48 h
SK-MEL-28 melanoma = tested on: SK-MEL-28 melanoma
KM12 colon = tested on: KM12 colon
MDA-MB-435 = tested on: MDA-MB-435
COLO 205 colon = tested on: COLO 205 colon
NCI-H23 lung = tested on: NCI-H23 lung
A549 NSCLC = tested on: A549 NSCLC
NCI-H226 lung = tested on: NCI-H226 lung
RXF 393 renal = tested on: RXF 393 renal
SR leukemia = tested on: SR leukemia
NCI-H522 lung = tested on: NCI-H522 lung
HS 578T breast = tested on: HS 578T breast
SK-MEL-5 melanoma = tested on: SK-MEL-5 melanoma
IGROV1 ovarian = tested on: IGROV1 ovarian
T-47D breast = tested on: T-47D breast
LOX IMVI melanoma = tested on: LOX IMVI melanoma
NCI-H460 lung = tested on: NCI-H460 lung
UACC-257 melanoma = tested on: UACC-257 melanoma
SK-OV-3 ovarian = tested on: SK-OV-3 ovarian
NCI/ADR-RES ovarian = tested on: NCI/ADR-RES ovarian
SN12C renal = tested on: SN12C renal
SF-268 CNS = tested on: SF-268 CNS
DU-145 prostate = tested on: DU-145 prostate
OVCAR-4 ovarian = tested on: OVCAR-4 ovarian
OVCAR-5 ovarian = tested on: OVCAR-5 ovarian
CAKI-1 renal = tested on: CAKI-1 renal
EKVX NSCLC = tested on: EKVX NSCLC
MDA-MB-231 breast = tested on: MDA-MB-231 breast
MCF7 breast = tested on: MCF7 breast
HOP-92 NSCLC = tested on: HOP-92 NSCLC
SNB-75 CNS = tested on: SNB-75 CNS
UO-31 renal = tested on: UO-31 renal
ACHN renal = tested on: ACHN renal
CCRF-CEM leukemia = tested on: CCRF-CEM leukemia
SW-620 colon = tested on: SW-620 colon
OVCAR-8 ovarian = tested on: OVCAR-8 ovarian
HCC-2998 colon = tested on: HCC-2998 colon
TK-10 renal = tested on: TK-10 renal
HOP-62 NSCLC = tested on: HOP-62 NSCLC
MALME-3M melanoma = tested on: MALME-3M melanoma
HL-60(TB) leukemia = tested on: HL-60(TB) leukemia
786-0 renal = tested on: 786-0 renal
HCT-15 colon = tested on: HCT-15 colon
HT29 colon = tested on: HT29 colon
RPMI-8226 leukemia = tested on: RPMI-8226 leukemia
HCT-116 colon = tested on: HCT-116 colon
SF-295 CNS = tested on: SF-295 CNS
OVCAR-3 ovarian = tested on: OVCAR-3 ovarian
U251 CNS = tested on: U251 CNS
M14 melanoma = tested on: M14 melanoma
K-562 leukemia = tested on: K-562 leukemia
SNB-19 CNS = tested on: SNB-19 CNS
A498 renal = tested on: A498 renal
UACC-62 melanoma = tested on: UACC-62 melanoma
MOLT-4 leukemia = tested on: MOLT-4 leukemia
SF-539 CNS = tested on: SF-539 CNS
PC-3 prostate = tested on: PC-3 prostate
BT-549 breast = tested on: BT-549 breast
SK-MEL-2 melanoma = tested on: SK-MEL-2 melanoma

Compound CC([C@H]1CC=C2C3CCC4=C[C@@H](N(C)C)CC[C@]4(C)C3CC[C@@]21C)N(C)C (stereo not given in full) has a GI50 (SK-MEL-28 melanoma) of 1.74 µM, a TGI (SK-MEL-28 melanoma) of 3.38 µM and a GI50 (KM12 colon) of 2.77 µM. It also gave a TGI (KM12 colon) of 11.9 µM, a GI50 (MDA-MB-435) of 2 µM and a TGI (MDA-MB-435) of 4.94 µM. It also gave a GI50 (COLO 205 colon) of 1.7 µM, a TGI (COLO 205 colon) of 3.37 µM and a GI50 (NCI-H23 lung) of 3.15 µM. It also gave a TGI (NCI-H23 lung) of 14.8 µM, a GI50 (A549 NSCLC) of 3.97 µM and a TGI (A549 NSCLC) of 11.1 µM. The GI50 (NCI-H226 lung) was 4.52 µM, the TGI (NCI-H226 lung) was 21.5 µM and the GI50 (RXF 393 renal) was 4.28 µM. The TGI (RXF 393 renal) was 17.3 µM, the GI50 (SR leukemia) was 0.876 µM and the TGI (SR leukemia) was 4.19 µM. For the same compound, the GI50 (NCI-H522 lung) was 7.12 µM, the TGI (NCI-H522 lung) was 25 µM and the GI50 (HS 578T breast) was 3.24 µM. The TGI (HS 578T breast) was 13.6 µM, the GI50 (SK-MEL-5 melanoma) was 1.35 µM and the TGI (SK-MEL-5 melanoma) was 2.71 µM. It also gave a GI50 (IGROV1 ovarian) of 4.88 µM, a GI50 (T-47D breast) of 1.17 µM and a TGI (T-47D breast) of 7.77 µM. For the same compound, the GI50 (LOX IMVI melanoma) was 1.6 µM, the TGI (LOX IMVI melanoma) was 3.69 µM and the GI50 (NCI-H460 lung) was 2.07 µM. For the same compound, the TGI (NCI-H460 lung) was 5.48 µM, the GI50 (UACC-257 melanoma) was 6.1 µM and the TGI (UACC-257 melanoma) was 19.4 µM. For the same compound, the GI50 (SK-OV-3 ovarian) was 3.86 µM, the TGI (SK-OV-3 ovarian) was 11.6 µM and the GI50 (NCI/ADR-RES ovarian) was 4.25 µM. For the same compound, the TGI (NCI/ADR-RES ovarian) was 18.2 µM, the GI50 (SN12C renal) was 2.54 µM and the TGI (SN12C renal) was 12.1 µM. It also gave a GI50 (SF-268 CNS) of 1.98 µM, a TGI (SF-268 CNS) of 4.71 µM and a GI50 (DU-145 prostate) of 6.63 µM. It also gave a TGI (DU-145 prostate) of 20.4 µM, a GI50 (OVCAR-4 ovarian) of 3.26 µM and a TGI (OVCAR-4 ovarian) of 21.9 µM. The GI50 (OVCAR-5 ovarian) was 6.23 µM, the TGI (OVCAR-5 ovarian) was 19.5 µM and the GI50 (CAKI-1 renal) was 2.49 µM. For the same compound, the TGI (CAKI-1 renal) was 10.3 µM, the GI50 (EKVX NSCLC) was 1.99 µM and the TGI (EKVX NSCLC) was 18.3 µM. For the same compound, the GI50 (MDA-MB-231 breast) was 2.33 µM, the TGI (MDA-MB-231 breast) was 7.9 µM and the GI50 (MCF7 breast) was 1.98 µM. The TGI (MCF7 breast) was 9.4 µM, the GI50 (HOP-92 NSCLC) was 3.66 µM and the TGI (HOP-92 NSCLC) was 10.3 µM. For the same compound, the GI50 (SNB-75 CNS) was 3.3 µM, the TGI (SNB-75 CNS) was 10.6 µM and the GI50 (UO-31 renal) was 1.95 µM. The TGI (UO-31 renal) was 5.54 µM, the GI50 (ACHN renal) was 4.07 µM and the TGI (ACHN renal) was 14.7 µM. The GI50 (CCRF-CEM leukemia) was 2.11 µM, the TGI (CCRF-CEM leukemia) was 7.79 µM and the GI50 (SW-620 colon) was 2.49 µM. The TGI (SW-620 colon) was 8.24 µM, the GI50 (OVCAR-8 ovarian) was 5.85 µM and the TGI (OVCAR-8 ovarian) was 22.3 µM. For the same compound, the GI50 (HCC-2998 colon) was 4.21 µM, the TGI (HCC-2998 colon) was 13.1 µM and the GI50 (TK-10 renal) was 5.42 µM. It also gave a TGI (TK-10 renal) of 20 µM, a GI50 (HOP-62 NSCLC) of 1.8 µM and a TGI (HOP-62 NSCLC) of 3.87 µM. The GI50 (MALME-3M melanoma) was 1.92 µM, the TGI (MALME-3M melanoma) was 4.47 µM and the GI50 (HL-60(TB) leukemia) was 1.26 µM. The TGI (HL-60(TB) leukemia) was 3.66 µM, the GI50 (786-0 renal) was 2.94 µM and the TGI (786-0 renal) was 7.99 µM. For the same compound, the GI50 (HCT-15 colon) was 1.38 µM, the TGI (HCT-15 colon) was 3.82 µM and the GI50 (HT29 colon) was 0.455 µM. The TGI (HT29 colon) was 2.11 µM, the GI50 (RPMI-8226 leukemia) was 1.91 µM and the TGI (RPMI-8226 leukemia) was 13 µM. It also gave a GI50 (HCT-116 colon) of 1.07 µM, a TGI (HCT-116 colon) of 2.76 µM and a GI50 (SF-295 CNS) of 1.79 µM. It also gave a TGI (SF-295 CNS) of 4.35 µM, a GI50 (OVCAR-3 ovarian) of 2.45 µM and a TGI (OVCAR-3 ovarian) of 8.74 µM. For the same compound, the GI50 (U251 CNS) was 3.21 µM, the TGI (U251 CNS) was 15.4 µM and the GI50 (M14 melanoma) was 1.76 µM. For the same compound, the TGI (M14 melanoma) was 3.53 µM, the GI50 (K-562 leukemia) was 0.611 µM and the TGI (K-562 leukemia) was 3.05 µM. For the same compound, the GI50 (SNB-19 CNS) was 7.57 µM, the TGI (SNB-19 CNS) was 20.4 µM and the GI50 (A498 renal) was 3.27 µM. It also gave a TGI (A498 renal) of 13.9 µM, a GI50 (UACC-62 melanoma) of 1.75 µM and a TGI (UACC-62 melanoma) of 3.59 µM. It also gave a GI50 (MOLT-4 leukemia) of 1.97 µM, a TGI (MOLT-4 leukemia) of 5.31 µM and a GI50 (SF-539 CNS) of 1.4 µM. It also gave a TGI (SF-539 CNS) of 2.84 µM, a GI50 (PC-3 prostate) of 2.15 µM and a TGI (PC-3 prostate) of 7.72 µM. For the same compound, the GI50 (BT-549 breast) was 3.54 µM, the TGI (BT-549 breast) was 15.4 µM and the GI50 (SK-MEL-2 melanoma) was 8.23 µM. It also gave a TGI (SK-MEL-2 melanoma) of 21 µM.
